Assay results from patent publication EP0076452A2, “Cephalosporin derivatives, process for their preparation and pharmaceutical compositions containing them” (priority 1981, dated 1983).
≈ marks a conversion by molar mass, not a printed value. Like-named read-outs stand apart in the source and are kept apart here.

Legend:
[1] = tested on: Staphylococcus aureus 10 B; test: Chemotherapeutic efficacy in vivo against systemic infection in mice (ED50); set-up: species or system Maus; conditions: for ED50: Staphylococcus aureus, 10B, sc, read-out: ED50 Staphylococcus aureus 10 B; for ED50 Staphylococcus aureus 10 B: s.c.
Excerpt: (§1) B. Die chemotherapeutische Wirksamkeit in vivo gegen systemische Infektionen in weiblicher SPF, MF2 Mäusen wurde nach der Methode von Zak, 0. et al., 1979, Drugs Exptl. Clin. Res. 5, 45-59, ermittelt. Die gefundenen ED50-Werte in Milligramm Substanz pro Kilogramm Maus (mg/kg) für eine Anzahl von Mikroorganismen werden für die subcutan (s.c.) applizierten Testverbindungen in der Tabelle 2 angegeben.

Escherichia coli 205 [2] = test: as above; set-up: species or system Maus; conditions: for ED50: Escherichia coli, 205, sc, read-out: ED50 Escherichia coli 205
Excerpt: as §1

Proteus rettgeri 856 = test: Antibiotic activity in vitro, agar dilution method in DST agar (MIC); type: cell-based; conditions: for MIC Proteus rettgeri 856: in vitro
Excerpt: (§2) A. Die antibiotische Aktivität der Testverbindungen in vitro wurde durch die Agarverdünnungsmethode nach Ericsson, H.M., und Sherris, S.C., 1971, Acta Path. Microb. Scand. Section B, Suppl. No. 217, Bd. 1-90, in DST Agar ermittelt. Die gefundenen, das Wachstum der Testorganismen noch hemmenden Minimalkonzentrationen (MIC = minimum inhibiting concentrations) werden in Mikrogramm pro Mililiter ([…]) für die geprüften Verbindungen in der Tabelle 1 angegeben.

[3] = tested on: Streptococcus pyogenes Aronson; test: as above; type: cell-based; conditions: for MIC: Streptococcus pyogenes, read-out: MIC Streptococcus pyogenes Aronson
Excerpt: as §2

Escherichia coli 205 [4] = test: as above; type: cell-based; conditions: for MIC Escherichia coli 205: in vitro
Excerpt: as §2

[5] = systemic infection, female SPF MF2 mice
[6] = s.c., systemic infection, female SPF MF2 mice
[7] = Providencia rettgeri, 856, in vitro, agar dilution, DST Agar, read-out: MIC Proteus rettgeri 856
[8] = in vitro, agar dilution, DST Agar
[9] = Escherichia coli, 205, in vitro, agar dilution, DST Agar, read-out: MIC Escherichia coli 205
[10] = agar dilution, DST Agar, listed as 8

Compound | MIC (Proteus rettgeri 856; [7]) | MIC [3, 8] | MIC (Escherichia coli 205 [4]; [9]) | ED50 [1, 5] | ED50 (Escherichia coli 205 [2]; [6]) | further results
CC(C)(O/N=C(\C(=O)N[C@@H]1C(=O)N2C(C(=O)[O-])=C(C[n+]3ccccc3)CS[C@H]12)c1coc(N)n1)C(=O)O [Testverbindung 9] | 0.2 µg/mL (≈ 0.377 µM) | 0.5 µg/mL (≈ 0.942 µM) | 1 µg/mL (≈ 1.88 µM) | > 30 mg/kg | 5.6 mg/kg | –
CO/N=C(\C(=O)N[C@@H]1C(=O)N2C(C(=O)[O-])=C(C[n+]3ccc(C(N)=O)cc3)CS[C@H]12)c1coc(N)n1 [Testverbindung 5, 3-(4-Carbamoylpyridiniomethyl)-7β-[2-(2-amino-4-oxazolyl)-2-Z-methoxyiminoacetylamino]-3-cephem-4-carboxylat] | – | 0.02 µg/mL (≈ 0.0399 µM) | – | – | – | ED50 Staphylococcus aureus 10 B ([1]; systemic infection, female SPF MF2 mice, listed as 8): >30 mg/kg; ED50 Escherichia coli 205 (Escherichia coli 205 [2]; s.c., systemic infection, female SPF MF2 mice, listed as 8): >30 mg/kg; MIC Proteus rettgeri 856 (Proteus rettgeri 856; [10]): 1 µg/mL (≈ 1.99 µM); MIC Escherichia coli 205 (Escherichia coli 205 [4]; [10]): 4 µg/mL (≈ 7.98 µM)
CON=C(C(=O)NC1C(=O)N2C(C(=O)[O-])=C(C[n+]3cccc(Cl)c3)CSC12)c1coc(N)n1 (stereo not shown) [Testverbindung 16, 3-(3-Chlorpyridiniomethyl)-7ß-[2-(2-amino-4-oxazolyl)-2-Z-methoxyiminoacetylamino]-3-cephem-4-carboxylat] | – | – | – | – | – | ED50 [1]: 30 mg/kg; ED50 (Escherichia coli 205 [2]): 14 mg/kg; MIC (Proteus rettgeri 856; Providencia rettgeri, 856, read-out: MIC Proteus rettgeri 856): 0.1 µg/mL (≈ 0.203 µM); MIC [3]: 0.2 µg/mL (≈ 0.406 µM); MIC (Escherichia coli 205 [4]; Escherichia coli, 205, read-out: MIC Escherichia coli 205): 8 µg/mL (≈ 16.2 µM)
CO/N=C(\C(=O)N[C@@H]1C(=O)N2C(C(=O)OCOC(=O)C(C)(C)C)=C(COC(N)=O)CS[C@H]12)c1coc(N)n1 [Beispiel 18, 3-Carbamoyloxymethyl-7ß-[2-(2-amino-4-oxazolyl)-2-Z-methoxyimino-acetylamino]-3-cephem-4-carbonsäure-pivaloyloxymethylester] | – | – | – | – | – | ED50 Staphylococcus aureus 10 B [1, 5]: 8 mg/kg; ED50 Escherichia coli 205 (Escherichia coli 205 [2]; [6]): >30 mg/kg; MIC Proteus rettgeri 856 (Proteus rettgeri 856; agar dilution, DST Agar): 0,01 µg/ml; MIC Streptococcus pyogenes Aronson [3, 8]: 0,02 µg/ml; MIC Escherichia coli 205 (Escherichia coli 205 [4]; agar dilution, DST Agar): 0,1 µg/ml
CO/N=C(\C(=O)N[C@@H]1C(=O)N2C(C(=O)[O-])=C(C[n+]3ccc(C(=O)O)cc3)CS[C@H]12)c1coc(N)n1 [Testverbindung 17] | 0.02 µg/mL (≈ 0.0398 µM) | 0.05 µg/mL (≈ 0.0995 µM) | 0.5 µg/mL (≈ 0.995 µM) | > 30 mg/kg | – | –
CO/N=C(\C(=O)N[C@@H]1C(=O)N2C(C(=O)O)=C(CSc3nnnn3CCN(C)C)CS[C@H]12)c1coc(N)n1.Cl.Cl [Testverbindung 3, 3-[1-(2-Dimethylaminoäthyl)-1H-tetrazol-5-ylthiomethyl]-7ß-[2-(2-amino-4-oxazolyl)-2-Z-methoxyiminoacetylamino]-3-cephem-4-carbonsäure-dihydrochlorid] | – | – | – | – | – | ED50 Staphylococcus aureus 10 B [1, 5]: >30 mg/kg; ED50 Escherichia coli 205 (Escherichia coli 205 [2]; [6]): >30 mg/kg; MIC Proteus rettgeri 856 (Proteus rettgeri 856; agar dilution, DST Agar): 0,01 µg/ml; MIC Streptococcus pyogenes Aronson [3, 8]: 0,05 µg/ml; MIC Escherichia coli 205 (Escherichia coli 205 [4]; agar dilution, DST Agar): 0,2 µg/ml
CO/N=C(\C(=O)N[C@@H]1C(=O)N2C(C(=O)O)=C(CSc3nnnn3C)CS[C@H]12)c1coc(N)n1 [Testverbindung 1] | – | – | 0.1 µg/mL (≈ 0.202 µM) | 12 mg/kg | 1.5 mg/kg | –
CO/N=C(\C(=O)N[C@@H]1C(=O)N2C(C(=O)O)=C(CSc3nnnn3CCN(C)C)CS[C@H]12)c1coc(N)n1 [Testverbindung 3] | 0.02 µg/mL (≈ 0.0362 µM) | 0.02 µg/mL (≈ 0.0362 µM) | 0.1 µg/mL (≈ 0.181 µM) | 28 mg/kg | 1.7 mg/kg | –
CC(C)(ON=C(C(=O)NC1C(=O)N2C(C(=O)[O-])=C(C[n+]3ccc(C(N)=O)cc3)CSC12)c1coc(N)n1)C(=O)O (stereo not shown) [Testverbindung 10] | 0.2 µg/mL (≈ 0.349 µM) | 0.02 µg/mL (≈ 0.0349 µM) | 4 µg/mL (≈ 6.97 µM) | > 30 mg/kg | > 30 mg/kg | –
CO/N=C(\C(=O)N[C@@H]1C(=O)N2C(C(=O)O)=C(COC(C)=O)CS[C@H]12)c1coc(N)n1 [Testverbindung 13] | – | 0.01 µg/mL (≈ 0.0228 µM) | 0.1 µg/mL (≈ 0.228 µM) | 5 mg/kg | 1 mg/kg | –
CC(C)(O/N=C(\C(=O)N[C@@H]1C(=O)N2C(C(=O)[O-])=C(C[n+]3ccc(C(N)=O)cc3)CS[C@H]12)c1coc(N)n1)C(=O)O [Testverbindung 10] | 0.5 µg/mL (≈ 0.872 µM) | 0.2 µg/mL (≈ 0.349 µM) | 0.5 µg/mL (≈ 0.872 µM) | > 30 mg/kg | 1.6 mg/kg | –
CON=C(C(=O)NC1C(=O)N2C(C(=O)[O-])=C(C[n+]3ccc(C(=O)O)cc3)CSC12)c1coc(N)n1 (stereo not shown) [Testverbindung 17, 3-(4-Carboxylatpyridiniomethyl)-7ß-[2-(2-amino-4-oxazolyl)-2-Z-methoxyiminoacetylamino]-3-cephem-4-carboxylat-natriumsalz] | – | 0.02 µg/mL (≈ 0.0398 µM) | 0.5 µg/mL (≈ 0.995 µM) | 5.5 mg/kg | 2 mg/kg | –
CO/N=C(/C(=O)N[C@@H]1C(=O)N2C(C(=O)O)=C(CSc3nnnn3CCN(C)C)CS[C@H]12)c1coc(N)n1 [Testverbindung 4] | 2 µg/mL (≈ 3.62 µM) | 0.05 µg/mL (≈ 0.0905 µM) | 8 µg/mL (≈ 14.5 µM) | – | – | –
CO/N=C(\C(=O)N[C@@H]1C(=O)N2C(C(=O)[O-])=C(C[n+]3ccc(C(N)=O)cc3)CS[C@H]12)c1coc(N)n1 [Testverbindung 5] | – | – | – | – | – | ED50 Staphylococcus aureus 10 B [1, 5]: 5,5 mg/kg; ED50 Escherichia coli 205 (Escherichia coli 205 [2]; [6]): 2,4 mg/kg; MIC Proteus rettgeri 856 (Proteus rettgeri 856; agar dilution, DST Agar): 0,02 µg/ml; MIC Escherichia coli 205 (Escherichia coli 205 [4]; agar dilution, DST Agar): 0,2 µg/ml

Further lines, with some results ahead:

MIC (Proteus rettgeri 856; [7]) | MIC [3, 8] | MIC (Escherichia coli 205 [4]; [9]) | Compound | ED50 [1, 5] | ED50 (Escherichia coli 205 [2]; [6]) | further results
0.02 µg/mL (≈ 0.047 µM) | – | 0.1 µg/mL (≈ 0.235 µM) | CC(=O)OCC1=C(C(=O)O)N2C(=O)[C@@H](NC(=O)/C(=N\O)c3coc(N)n3)[C@H]2SC1 [Testverbindung 6] | 1.35 mg/kg | 1 mg/kg | –
0.01 µg/mL (≈ 0.0188 µM) | 0.2 µg/mL (≈ 0.377 µM) | 0.2 µg/mL (≈ 0.377 µM) | CC(C)(ON=C(C(=O)NC1C(=O)N2C(C(=O)[O-])=C(C[n+]3ccccc3)CSC12)c1coc(N)n1)C(=O)O (stereo not shown) [Testverbindung 9, 3-Pyridiniomethyl-7ß-[2-(2-amino-4-oxazolyl)-2-Z-(2-carboxy-prop-2-yloxyimino)-acetylamino]-3-cephem-4-carboxylat-natriumsalz] | > 30 mg/kg | 4.4 mg/kg | –
– | 0.1 µg/mL (≈ 0.185 µM) | 0.5 µg/mL (≈ 0.927 µM) | CO/N=C(\C(=O)N[C@@H]1C(=O)N2C(C(=O)O)=C(CSc3nnnn3CC(=O)O)CS[C@H]12)c1coc(N)n1 [Testverbindung 2] | 55 mg/kg | 0.63 mg/kg | –
– | 0.01 µg/mL (≈ 0.0272 µM) | 0.2 µg/mL (≈ 0.544 µM) | CO/N=C(\C(=O)N[C@@H]1C(=O)N2C(C(=O)O)=CCS[C@H]12)c1coc(N)n1 [Testverbindung 14] | 30 mg/kg | 9 mg/kg | –
